Entries after “also recorded” stand apart in the source; their conditions may differ.
Legend:
[1] = system: Monoclonal antibody cocktail-induced arthritis mice; assay: Arthritis suppressing effects on arthritis-induced mice, Part 1; type: in vivo
Description: Monoclonal antibody cocktail-induced arthritis mice (BALE/c Cr Slc (SPF)) were used to examine arthritis suppressing effects of a peptide which is indicated as R5 in Example 2. Arthritis was caused by intravenous administration of 2 mg/mouse of an arthritis-inducing monoclonal antibody cocktail and three days later, intraperitoneal administration of 50 μg/mouse of Lipopolysaccharide (LPS). Peptide R5 was intraperitoneally administered at a dose of 10 mg/kg once or twice a day from the day following the LPS administration (day 4) up to day 14. Methotrexate, a positive control drug, was orally administered at a dose of 0.1 mg/kg once a day from day 4. Clinical scores of the extremities were measured on even days from day 0 up to day 14. Under anesthesia, blood was removed with heparin-containing physiological saline, and an ice-cooled, 4% solution of paraformaldehyde was continuously injected to perfusion-fix the whole body. After perfusion-fixation, the knee joints (obtained by cutting at the center of the femur and of the tibia and removing the skin and muscles) and hock joints (from the center of the tibia to the toe tips) of both hind limbs were excised and further fixed by immersion in a 4% solution of paraformaldehyde overnight (4° C.). After that, both knee joints and both hock joints were transferred into 50 mM PBS (4° C.), and then subjected to soft x-ray radiography of the hock joints in two directions (from the internal side and the upper side).
The required amount was calculated for the peptide, based on the animal weight. A peptide solution was prepared to make a concentration of 1 mg/ml in a 0.5% methyl cellulose solution, and the prepared peptide solution was cold stored.
A solution of methotrexate was prepared by weighing 1 mg of methotrexate into an agate mortar, grinding it with a pestle, and then gradually adding a 0.5% methyl cellulose solution to form a suspension and make a concentration of 0.01 mg/ml. […]
Results of examinations were expressed by mean value±standard error and analyzed using EXSAS (Version 7.1.6, Arm Systex Co., Ltd.). […]

[2] = system: Cy3-labeled goat anti-mouse immunoglobulin (IgG); assay: Peptide array of C1q subunit 15-mers probed with Cy3-labeled immunoglobulin; type: binding; settings: peptide spots on glass array, 4° C., 12 hours, background fluorescence intensity is 2.6
From the text: The amino acid sequences of the A, B, and C subunit chains of human C1q, are shown in SEQ ID NOs: 17 to 19, and the nucleotide sequences in SEQ ID NOs: 20 to 22. Based on each of the amino acid sequences, sequences having 15 amino acids (residues) from each subunit and shifted at intervals of three amino acids, were synthesized on a glass array as synthetic peptides (Peptide Nos. 1 to […], and 193 to 270 for the A, B, and C chains, respectively). The synthesis of each peptide was carried out at a specific location on the array, so as to prepare a peptide array which included the synthetic peptides covering the entire amino acid sequences of the subunits of C1q. The preparation of the array was outsourced to JPT Peptide Technologies GmbH.
To the peptide array was applied 330 μl of an Cy3-labeled goat anti-mouse immunoglobulin (IgG) (1 mg/ml; Zymed Laboratories) diluted 1000-fold with PBS (10 mM phosphate buffer, pH 7.0, 0.1 M NaCl), and the array was sealed and then incubated at 4° C. for 12 hours. After that, the array was washed once with methanol and then 5 times with Milli-Q water for 5 minutes each. The array slide was centrifuged and dried, and scanned with a fluorescence scanner (Agilent DNA microarray scanner; Agilent Technologies), so that fluorescence intensity was quantified at the respective peptide spots on the array using a software (Feature Extraction software; Agilent Technologies). Several spots displaying strong fluorescence intensities were detected. […] Note that in the description, the amino acids are denoted by the one-letter code known in the art.

“STGKFTCKVPGLYYF (Immunoglobulin binding peptide) [R5]” was tested, and the “difference in effectiveness between once-a-day and twice-a-day administration” value ([1]; 10 mg/kg intraperitoneal) was “no significant difference”, the “degree of arthritis suppression compared with methotrexate” value ([1]; 10 mg/kg intraperitoneal vs methotrexate 0.1 mg/kg orally once a day) was “higher degree of arthritis suppression than that of methotrexate” and the “arthritis suppressing effect (clinical score)” value ([1]; 10 mg/kg intraperitoneal, once or twice a day, day 4 to day 14) was “exhibited arthritis suppressing effects; also recorded: arthritis was suppressed”. For the same sequence, the Fluorescence intensity [2] was 65,311.

From patent US20110306554A1, “PEPTIDE CAPABLE OF BINDING TO IMMUNOGLOBULIN” (priority 2009, published 2011)
